# Test results reported in patent US4348401A, “N-Phenoxyalkylpiperidine derivatives” (Boehringer Mannheim GmbH, priority 1979, dated 1982).
# Test system: bronchospasm
# Assay: inhibition of antigen-induced bronchospasm (Br Sp), passively sensitized guinea pigs, Konzett and Rossler method as modified by Collier
# Type: in vivo, guinea pig
# Settings: 5 minutes before antigen, 3 minutes after antigen, vs control group
# Procedure: In animals narcotized with 40 mg. sodium pentobarbital/kg. body weight, a Y cannula is introduced into the trachea and a venous cannula is introduced in the jugular vein. A cannula introduced in the carotid artery leads to a measurement chamber (Statham, P 23 Db), with which the arterial pressure is recorded via a direct-current voltage potential measuring bridge. Using a respiratory pump, rats are given an air volume, depending upon the size of the animal, of 1 to 2 ml. 64 times and guinea pigs of 7 to 15 ml. 72 times per minute. […] Upon the appearance of a bronchospasm, initiated by the intravenous administration of the antigen, in the case of the respiratory volume remaining the same, all of the supplied volume of air can no longer flow into the lungs and part of it flows off through a side arm via a valve. The method developed by the firm Basile differs from the method originally described by Konzett and Rossler in that this air volume is measured indirectly via the rate of flow with the help of a thermoelement. The strength of a bronchospasm can then be recorded as a percentage reduction of the available bronchial volume. The theoretically maximum possible bronchospasm is obtained by closing the respiration tube on the animal so that all of the air supplied flows off through the valve.
# Every 30 seconds, the valve is closed for 8 seconds by a relay and the total volume is pumped into the lungs in order again to expand the bronchi and alveoli and thus to make possible a sufficient gas exchange. The percentage decrease of the available bronchial volume (X) is calculated according to the following equation: [formula] wherein a is the amplitude of the recorder in mm. at the commencement of the experiment, b is the height of the amplitude in mm. at a definite point of time and m is the maximum amplitude in mm. after closing the respiration tube on the animal.
# The antigen is 2×crystallized ovalbumin. Equal amounts of a solution of the antigen in physiological sodium chloride solution and complete Freund's adjuvant are emulsified and injected intramuscularly in an amount of 2×0.15 ml. to male guinea pigs. The animals are bled and the pooled serum is stored at -20° C.
# The compounds according to the present invention are administered intravenously 5 minutes before administration of the antigen.
smiles,measurement,setting,value
"NC(=O)c1ccccc1OCCCN1CCC(NC(=O)c2ccccc2)CC1 [Example 2b, 2-[3-(4-benzamidopiperidino)-propoxy]-benzamide]",% inhibition Br Sp,dosage 0.38 mg/kg i.v.,67%
"Cn1c(=O)c2[nH]cnc2n(C)c1=O [aminophylline, reference compound]",% inhibition Br Sp,dosage 24 mg/kg i.v.,29%
"COC(=O)c1ccccc1OCCCN1CCC(NC(=O)c2ccccc2)CC1 [Example 2a, methyl 2-[3-(4-benzamidopiperidino)-propoxy]-benzoate]",% inhibition Br Sp,dosage 3.0 mg/kg i.v.,71%
"O=C(NC1CCN(CCCOc2ccccc2-c2nnn[nH]2)CC1)c1ccccc1 [Example 9, 5-{2-[3-(4-Benzamidopiperidino)-propoxy]-phenyl}-1H-tetrazole]",% inhibition Br Sp,dosage 0.1 mg/kg i.v.,56%
"O=C(NC1CCN(CCCOc2ccccc2C(=O)O)CC1)c1ccccc1 [Example 7, 2-[3-(4-Benzamidopiperidino)-propoxy]-benzoic acid]",% inhibition Br Sp,dosage 1.5 mg/kg i.v.,45%
"Cc1ccccc1C(=O)NC1CCN(CCCOc2ccccc2-c2nnn[nH]2)CC1 [Example 10g, 5-{2-{3-[4-(2-methylbenzamido)-piperidino]-propoxy}-phenyl}-1H-tetrazole]",% inhibition Br Sp,dosage 0.75 mg/kg i.v.,71%
